Results reported in patent publication US20230293526A1, “METHOD FOR TREATING CANCER WITH A REVERSE TRANSCRIPTASE INHIBITOR” (PrimeFour Therapeutics, Inc., priority 2020, published 2023).

Experiments:
Assay in all cases: Cell proliferation Ex.3
Format in all cases: cell-based
MV4-11 = details: Homo sapiens
Procedure: (§1) A dose response relationship on cell proliferation was assessed for Compound 13 on 140 tumor cell lines. […] Cells were cultured in the appropriate media. For the assays, cells were seeded in white cell culture-treated flat and clear bottom multiwell plates and incubated at 37° C. overnight before compound was added. […] on the medium, cell plates were equilibrated to room temperature for one hour, CellTiterGlo reagent (Promega) was added and luminescence was measured approximately an hour later using a luminometer. Raw data were converted into percent cell viability relative to the high and low control, which were set to 10000 and 000, respectively.

HS729 = system: HS729
Procedure: as §1

SW620 = details: Homo sapiens, SW-620
Procedure: as §1

MCF7 = details: Homo sapiens
Procedure: as §1

MDAMB436 = details: Homo sapiens, MDA-MB-436
Procedure: as §1

DLD1 = details: Homo sapiens, DLD-1
Procedure: as §1

GRANTA-519 = details: Homo sapiens
Procedure: as §1

C33A = details: Homo sapiens, C-33-A
Procedure: as §1

PANC1 = details: Homo sapiens, PANC-1
Procedure: as §1

TE671 = details: Homo sapiens, TE-671
Procedure: as §1

WSU-NHL = details: Homo sapiens
Procedure: as §1

JAR = system: JAR
Procedure: as §1

OVCAR3 = details: Homo sapiens, OVCAR-3
Procedure: as §1

BXPC3 = details: Homo sapiens, BXPC-3
Procedure: as §1

U87MG = details: Homo sapiens, U-87 MG
Procedure: as §1

HL-60 = details: Homo sapiens
Procedure: as §1

MHHES1 = details: Homo sapiens, MHH-ES-1
Procedure: as §1

RDES = details: RD-ES
Procedure: as §1

DU145 = details: Homo sapiens, DU-145
Procedure: as §1

IMR90 = details: Homo sapiens, IMR-90
Procedure: as §1

HeLa = details: Homo sapiens
Procedure: as §1

U2OS = details: Homo sapiens
Procedure: as §1

SKOV3 = details: Homo sapiens, SK-OV-3
Procedure: as §1

CLS439 = system: CLS439
Procedure: as §1

MDAMB435 = details: Homo sapiens, MDA-MB-435
Procedure: as §1

RAMOS = details: Homo sapiens
Procedure: as §1

J82 = details: Homo sapiens
Procedure: as §1

Work on `C#C[C@]1(CO)O[C@@H](n2cc(F)c(N)nc2=O)C[C@@H]1O` [compound 9] yielded an IC50 (MV4-11; MV4-11, 72 h) of 2.48 µM, an IC50 (MV4-11; MV4-11, 120 h) of 0.251 µM and an IC50 (MV4-11; MV4-11, 168 h) of 1.72 µM. The IC50 (HS729; HS729, 72 h) was > 10 µM, the IC50 (HS729; HS729, 120 h) was > 10 µM and the IC50 (HS729; HS729, 168 h) was > 10 µM. For the same compound, the IC50 (SW620; SW620, 72 h) was > 10 µM, the IC50 (SW620; SW620, 120 h) was > 10 µM and the IC50 (SW620; SW620, 168 h) was > 10 µM. The IC50 (MCF7; MCF7, 72 h) was > 10 µM, the IC50 (MCF7; MCF7, 120 h) was > 10 µM and the IC50 (MCF7; MCF7, 168 h) was > 10 µM. For the same compound, the IC50 (MDAMB436; MDAMB436, 72 h) was > 10 µM, the IC50 (MDAMB436; MDAMB436, 120 h) was > 10 µM and the IC50 (MDAMB436; MDAMB436, 168 h) was > 10 µM. For the same compound, the IC50 (DLD1; DLD1, 72 h) was > 10 µM, the IC50 (DLD1; DLD1, 120 h) was > 10 µM and the IC50 (DLD1; DLD1, 168 h) was > 10 µM. It also gave an IC50 (GRANTA-519; Granta-519, 72 h) of 4.98 µM, an IC50 (GRANTA-519; Granta-519, 120 h) of 0.24 µM and an IC50 (GRANTA-519; Granta-519, 168 h) of 0.35 µM. The IC50 (C33A; 72 h) was > 10 µM, the IC50 (C33A; 120 h) was 2.93 µM and the IC50 (C33A; 168 h) was 3.07 µM. For the same compound, the IC50 (PANC1; PANC1, 72 h) was > 10 µM, the IC50 (PANC1; PANC1, 120 h) was > 10 µM and the IC50 (PANC1; PANC1, 168 h) was > 10 µM. For the same compound, the IC50 (TE671; TE671, 72 h) was > 10 µM, the IC50 (TE671; TE671, 120 h) was > 10 µM and the IC50 (TE671; TE671, 168 h) was > 10 µM. The IC50 (WSU-NHL; 72 h) was 3.01 µM, the IC50 (WSU-NHL; 120 h) was 0.42 µM and the IC50 (WSU-NHL; 168 h) was 0.87 µM. The IC50 (JAR; 72 h) was > 10 µM, the IC50 (JAR; 120 h) was > 10 µM and the IC50 (JAR; 168 h) was > 10 µM. For the same compound, the IC50 (OVCAR3; OVCAR3, 72 h) was > 10 µM, the IC50 (OVCAR3; OVCAR3, 120 h) was > 10 µM and the IC50 (OVCAR3; OVCAR3, 168 h) was > 10 µM. The IC50 (BXPC3; BXPC3, 72 h) was > 10 µM, the IC50 (BXPC3; BXPC3, 120 h) was 1.29 µM and the IC50 (BXPC3; BXPC3, 168 h) was 0.59 µM. For the same compound, the IC50 (U87MG; 72 h) was > 10 µM, the IC50 (U87MG; 120 h) was > 10 µM and the IC50 (U87MG; 168 h) was > 10 µM. For the same compound, the IC50 (HL-60; HL-60, 72 h) was > 10 µM, the IC50 (HL-60; HL-60, 120 h) was > 10 µM and the IC50 (HL-60; HL-60, 168 h) was > 10 µM. For the same compound, the IC50 (MHHES1; MHHES1, 72 h) was > 10 µM, the IC50 (MHHES1; MHHES1, 120 h) was > 10 µM and the IC50 (MHHES1; MHHES1, 168 h) was > 10 µM. For the same compound, the IC50 (RDES; 72 h) was > 10 µM, the IC50 (RDES; 120 h) was > 10 µM and the IC50 (RDES; 168 h) was > 10 µM. The IC50 (DU145; DU145, 72 h) was > 10 µM, the IC50 (DU145; DU145, 120 h) was > 10 µM and the IC50 (DU145; DU145, 168 h) was > 10 µM. For the same compound, the IC50 (IMR90; IMR90, 72 h) was > 10 µM, the IC50 (IMR90; IMR90, 120 h) was > 10 µM and the IC50 (IMR90; IMR90, 168 h) was > 10 µM. For the same compound, the IC50 (HeLa; 72 h) was > 10 µM, the IC50 (HeLa; 120 h) was > 10 µM and the IC50 (HeLa; 168 h) was > 10 µM. For the same compound, the IC50 (U2OS; 72 h) was > 10 µM, the IC50 (U2OS; 120 h) was > 10 µM and the IC50 (U2OS; 168 h) was > 10 µM. The IC50 (SKOV3; SKOV3, 72 h) was > 10 µM, the IC50 (SKOV3; SKOV3, 120 h) was > 10 µM and the IC50 (SKOV3; SKOV3, 168 h) was > 10 µM. The IC50 (CLS439; CLS439, 72 h) was > 10 µM, the IC50 (CLS439; CLS439, 120 h) was > 10 µM and the IC50 (CLS439; CLS439, 168 h) was > 10 µM. For the same compound, the IC50 (MDAMB435; MDAMB435, 72 h) was > 10 µM, the IC50 (MDAMB435; MDAMB435, 120 h) was > 10 µM and the IC50 (MDAMB435; MDAMB435, 168 h) was > 10 µM. The IC50 (RAMOS; 72 h) was 4.04 µM, the IC50 (RAMOS; 120 h) was 0.004 µM and the IC50 (RAMOS; 168 h) was 1.18 µM. For the same compound, the IC50 (J82; J82, 72 h) was > 10 µM, the IC50 (J82; J82, 120 h) was > 10 µM and the IC50 (J82; J82, 168 h) was > 10 µM.
